In US20190327974A1, “SYNERGISTS FOR IMPROVED PESTICIDES” (priority 2017, published 2019):

Tests used:
[1] = test system: Ostrinia nubilalis (European corn borer); assay: CPE combined with boronic acid derivatives on corn leaves; assay type: in vivo; settings: for toxicity of the boronic acid derivative alone (in words): some larvae death with 3.10 and 3.7 at 6 DAT; for efficacy on addition of the compound compared with CPE used alone (in words): 1 DAT and 3 DAT at the dose of 15.6 g a.i./ha
Method: (§1) Treatments were performed by spraying a volume of mixture corresponding to 200 l/ha. 4 boxes/condition.
(§2) Drying 1 h at 20° C.; Deposit of three leaf fragments per box on water agar (4 box/condition); Infection of each leaf fragment with 4 Ostrinia nubilalis (12 larvae/box); Incubation 18° C./28° C. […] The percentage of mortality was calculated for each assessment times. Statistical analysis of the data was performed with XLSTAT® software (ANOVAs followed by Newman-Keuls tests with a threshold of 5%, see Table below).

GranzymeK = target: T1, GranzymeK (Homo sapiens, UniProt P49863); assay: Protease selectivity panel; assay type: biochemical; settings: 100 μM compound, n = 2
T1 construct: purchased ENZO
T1 sequence (P49863 27-264): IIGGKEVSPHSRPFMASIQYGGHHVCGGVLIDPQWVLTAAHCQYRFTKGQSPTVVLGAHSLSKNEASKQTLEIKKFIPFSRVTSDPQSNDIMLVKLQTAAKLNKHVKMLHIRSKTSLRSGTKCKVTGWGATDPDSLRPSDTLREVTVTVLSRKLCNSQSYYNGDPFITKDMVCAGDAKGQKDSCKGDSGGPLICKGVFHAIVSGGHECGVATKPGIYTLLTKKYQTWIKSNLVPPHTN
Method: (§3) Test compounds were dissolved in 100% DMSO to make 10 mM stock. Final compound concentration in assay is […]. Compounds were tested in duplicate wells at single concentration and the final concentration of DMSO in all assays was kept at 1%. Five reference compounds, AEBSF, Carfilzomib, Granzyme B Inhibitor II, Dec-RVKR-CMK, and Teneligliptin hydrobromide, were tested in an identical manner with 8 concentration points at 5× dilutions.

PSMB9 = target: T2, PSMB9 (Homo sapiens, UniProt P28065); assay: Protease selectivity panel; assay type: biochemical; settings: 100 μM compound, n = 2
T2 construct: purchased BOSTON-BIOCHEM
Method: as §3

[2] = test system: panel of CBEs from various pests; assay: Panel of insect CBEs as a whole; assay type: biochemical
Method: Assays were performed with 4-NPB as the substrate.

[3] = Observation of the spray mixtures (flocculation); assay type: physicochemical; settings: alone and in mixture with CPE in all doses
[4] = test system: Ostrinia nubilalis (European corn borer); assay: Efficacy of chlorpyrifos-ethyl with boronic acids on European corn borer on corn leaves; assay type: in vivo
Method: as §1, §2

[5] = 1 DAT, boronic acid alone 0.2 mg/ml
[6] = 3 DAT, boronic acid alone 0.2 mg/ml
[7] = 6 DAT, boronic acid alone 0.2 mg/ml
[8] = 1 DAT, boronic acid alone 0.2 mg/ml, 12 larvae/box
[9] = 3 DAT, boronic acid alone 0.2 mg/ml, 12 larvae/box
[10] = 6 DAT, boronic acid alone 0.2 mg/ml, 12 larvae/box
[11] = 1 DAT, CPE 2.5 g a.i./ha, boronic acid, where present, 0.2 mg/ml
[12] = 1 DAT, CPE 6.24 g a.i./ha, boronic acid, where present, 0.2 mg/ml
[13] = 1 DAT, CPE 15.6 g a.i./ha, boronic acid, where present, 0.2 mg/ml
[14] = 1 DAT, CPE 39 g a.i./ha, boronic acid, where present, 0.2 mg/ml
[15] = 3 DAT, CPE 2.5 g a.i./ha, boronic acid, where present, 0.2 mg/ml
[16] = 3 DAT, CPE 6.24 g a.i./ha, boronic acid, where present, 0.2 mg/ml
[17] = 3 DAT, CPE 15.6 g a.i./ha, boronic acid, where present, 0.2 mg/ml
[18] = 3 DAT, CPE 39 g a.i./ha, boronic acid, where present, 0.2 mg/ml
[19] = 6 DAT, CPE 2.5 g a.i./ha, boronic acid, where present, 0.2 mg/ml
[20] = 6 DAT, CPE 6.24 g a.i./ha, boronic acid, where present, 0.2 mg/ml
[21] = 6 DAT, CPE 15.6 g a.i./ha, boronic acid, where present, 0.2 mg/ml
[22] = 6 DAT, CPE 39 g a.i./ha, boronic acid, where present, 0.2 mg/ml

Structure (SMILES): OB(O)c1cc(Br)cc(Oc2ccccc2)c1 [Compound 3.10, 3-Bromo-5-phenoxyfenylboronic acid]
- toxicity of the boronic acid derivative alone (in words) ([1]; 0.2 mg/ml): Absence of significant toxicity
- efficacy on addition of the compound compared with CPE used alone (in words) [1]: increased significantly the efficacy
- Percentage of efficacy [1, 5]: 0%
- Percentage of efficacy [1, 6]: 0%
- Percentage of efficacy [1, 7]: 22%
- inhibition at 100 µM (GranzymeK): 3%
- inhibition at 100 µM (PSMB9): 15%

Structure (SMILES): OB(O)c1cc(Br)cc(OCc2ccccc2)c1 [Compound 3.9]
- inhibition at 100 µM (GranzymeK): 14%
- inhibition at 100 µM (PSMB9): 50%

Structure (SMILES): OB(O)c1cc(Br)cc(N2CCCC2)c1 [Compound 3]
- inhibition at 100 µM (GranzymeK): 5%
- inhibition at 100 µM (PSMB9): 12%

Structure (SMILES): OB(O)c1ccc(OCc2ccccc2F)c(Cl)c1 [Compound 5, 3-Chloro-4(2′-fluorobenzyloxy) phenylboronic acid]
- inhibition spectrum across CBEs [2]: efficiently inhibiting six different CBEs
- flocculation [3]: Flocculation is observed
- toxicity of the boronic acid derivative alone (in words) ([1]; 0.2 mg/ml): Absence of significant toxicity
- Percentage of efficacy [1, 5]: 0%
- Evaluation of Larvae number, Mean [1, 8]: 12
- Percentage of efficacy [1, 6]: 0%
- Evaluation of Larvae number, Mean [1, 9]: 12
- Percentage of efficacy [1, 7]: 4%
- Evaluation of Larvae number, Mean [1, 10]: 10.3

Structure (SMILES): OB(O)c1cc(Br)cc(N2CCOCC2)c1 [Compound 3.1]
- Larvae number, mean ([4]; boronic acid alone 0.2 mg/ml, 1 DAT, 12 larvae/box): 12
- Larvae number, mean ([4]; boronic acid alone 0.2 mg/ml, 3 DAT, 12 larvae/box): 12
- Larvae number, mean ([4]; boronic acid alone 0.2 mg/ml, 6 DAT, 12 larvae/box): 8.3
- Evaluation of Larvae number, Mean [1, 8]: 12
- Evaluation of Larvae number, Mean [1, 9]: 12
- Evaluation of Larvae number, Mean [1, 10]: 8.3

Structure (SMILES): CC(C)Oc1cc(Br)cc(B(O)O)c1 [Compound 3.7, 3-Bromo-5-isopropoxyphenylboronic acid]
- toxicity of the boronic acid derivative alone (in words) ([1]; 0.2 mg/ml): Absence of significant toxicity
- efficacy on addition of the compound compared with CPE used alone (in words) [1]: increased significantly the efficacy
- Percentage of efficacy [1, 5]: 3%
- Evaluation of Larvae number, Mean [1, 8]: 11.7
- Percentage of efficacy [1, 6]: 4%
- Evaluation of Larvae number, Mean [1, 9]: 11
- Percentage of efficacy [1, 7]: 26%
- Evaluation of Larvae number, Mean [1, 10]: 8

Structure (SMILES): CCOP(=S)(OCC)Oc1nc(Cl)c(Cl)cc1Cl [CPE, Chlorpyrifos-ethyl]
- Percentage of efficacy ([4]; CPE 2.5, 1 DAT, boronic acid where present 0.2 mg/ml): 0%
- Percentage of efficacy ([4]; CPE 2.5, 3 DAT, boronic acid where present 0.2 mg/ml): 0%
- Percentage of efficacy ([4]; CPE 2.5, 6 DAT, boronic acid where present 0.2 mg/ml): 26%
- Larvae number, mean ([4]; CPE 2.5 g a.i./ha, 1 DAT, boronic acid where present 0.2 mg/ml): 12
- Larvae number, mean ([4]; CPE 2.5 g a.i./ha, 3 DAT, boronic acid where present 0.2 mg/ml): 12
- Larvae number, mean ([4]; CPE 2.5 g a.i./ha, 6 DAT, boronic acid where present 0.2 mg/ml): 8
- Percentage of efficacy ([4]; CPE 6.24, 1 DAT, boronic acid where present 0.2 mg/ml): 11%
- Percentage of efficacy ([4]; CPE 6.24, 3 DAT, boronic acid where present 0.2 mg/ml): 16%
- Percentage of efficacy ([4]; CPE 6.24, 6 DAT, boronic acid where present 0.2 mg/ml): 63%
- Larvae number, mean ([4]; CPE 6.24 g a.i./ha, 1 DAT, boronic acid where present 0.2 mg/ml): 10.7
- Larvae number, mean ([4]; CPE 6.24 g a.i./ha, 3 DAT, boronic acid where present 0.2 mg/ml): 9.7
- Larvae number, mean ([4]; CPE 6.24 g a.i./ha, 6 DAT, boronic acid where present 0.2 mg/ml): 4
- Percentage of efficacy ([4]; CPE 15.6, 1 DAT, boronic acid where present 0.2 mg/ml): 40%
- Percentage of efficacy ([4]; CPE 15.6, 3 DAT, boronic acid where present 0.2 mg/ml): 39%
- Percentage of efficacy ([4]; CPE 15.6, 6 DAT, boronic acid where present 0.2 mg/ml): 67%
- Larvae number, mean ([4]; CPE 15.6 g a.i./ha, 1 DAT, boronic acid where present 0.2 mg/ml): 7.3
- Larvae number, mean ([4]; CPE 15.6 g a.i./ha, 3 DAT, boronic acid where present 0.2 mg/ml): 7
- Larvae number, mean ([4]; CPE 15.6 g a.i./ha, 6 DAT, boronic acid where present 0.2 mg/ml): 3.5
- Percentage of efficacy ([4]; CPE 39, 1 DAT, boronic acid where present 0.2 mg/ml): 72%
- Percentage of efficacy ([4]; CPE 39, 3 DAT, boronic acid where present 0.2 mg/ml): 83%
- Percentage of efficacy ([4]; CPE 39, 6 DAT, boronic acid where present 0.2 mg/ml): 88%
- Larvae number, mean ([4]; CPE 39 g a.i./ha, 1 DAT, boronic acid where present 0.2 mg/ml): 3.3
- Larvae number, mean ([4]; CPE 39 g a.i./ha, 3 DAT, boronic acid where present 0.2 mg/ml): 2
- Larvae number, mean ([4]; CPE 39 g a.i./ha, 6 DAT, boronic acid where present 0.2 mg/ml): 1.3
- Evaluation of Larvae number, Mean [1, 11]: 12
- Percentage of efficacy [1, 11]: 0%
- Evaluation of Larvae number, Mean [1, 12]: 10.7
- Percentage of efficacy [1, 12]: 11%
- Evaluation of Larvae number, Mean [1, 13]: 7.3
- Percentage of efficacy [1, 13]: 40%
- Evaluation of Larvae number, Mean [1, 14]: 3.3
- Percentage of efficacy [1, 14]: 72%
- Evaluation of Larvae number, Mean [1, 15]: 12
- Percentage of efficacy [1, 15]: 0%
- Evaluation of Larvae number, Mean [1, 16]: 9.7
- Percentage of efficacy [1, 16]: 16%
- Evaluation of Larvae number, Mean [1, 17]: 7
- Percentage of efficacy [1, 17]: 39%
- Evaluation of Larvae number, Mean [1, 18]: 2
- Percentage of efficacy [1, 18]: 83%
- Evaluation of Larvae number, Mean [1, 19]: 8
- Percentage of efficacy [1, 19]: 26%
- Evaluation of Larvae number, Mean [1, 20]: 4
- Percentage of efficacy [1, 20]: 63%
- Evaluation of Larvae number, Mean [1, 21]: 3.5
- Percentage of efficacy [1, 21]: 67%
- Evaluation of Larvae number, Mean [1, 22]: 1.3
- Percentage of efficacy [1, 22]: 88%
